We go through six substances from patent publication EP4335840A1, “NEW CONTRAST AGENTS FOR USE IN DIAGNOSTIC IMAGING” (priority 2022, dated 2024).

Series [1] can be described thus: Water solubility in aqueous buffer. The class given is physicochemical. The note with it: aqueous buffer 10 mM Tris-HCl, pH 7.4, 20°C; Gd by ICP-MS. Here is the method: The exploratory water solubility of the compounds is determined at room temperature (20°C) in 0.5 mL buffer solution (10 mM Tris-HCI, pH 7.4) in the microcentrifuge tubes (Eppendorf, 2.0 mL safe-lock caps). The solid compounds were added stepwise to the buffer solution. More substance is added once all the suspended material is dissolved until an equilibrium between undissolved and dissolved substance is reached. The suspension was mixed using a shaker (Heidolph Reax 2000) and treated 5 min in an ultrasound bath (Bandelin, Sonorex Super RK255H). The Gadolinium concentration of the test substance in the clear solution is measured by ICP-MS. Table 1: Solubilities of compounds in aqueous buffer at 20°C (pH 7.4).

Series [2] addresses T1, OATP1B1 (Homo sapiens, UniProt Q9Y6L6).
T1 sequence (Q9Y6L6 1-691): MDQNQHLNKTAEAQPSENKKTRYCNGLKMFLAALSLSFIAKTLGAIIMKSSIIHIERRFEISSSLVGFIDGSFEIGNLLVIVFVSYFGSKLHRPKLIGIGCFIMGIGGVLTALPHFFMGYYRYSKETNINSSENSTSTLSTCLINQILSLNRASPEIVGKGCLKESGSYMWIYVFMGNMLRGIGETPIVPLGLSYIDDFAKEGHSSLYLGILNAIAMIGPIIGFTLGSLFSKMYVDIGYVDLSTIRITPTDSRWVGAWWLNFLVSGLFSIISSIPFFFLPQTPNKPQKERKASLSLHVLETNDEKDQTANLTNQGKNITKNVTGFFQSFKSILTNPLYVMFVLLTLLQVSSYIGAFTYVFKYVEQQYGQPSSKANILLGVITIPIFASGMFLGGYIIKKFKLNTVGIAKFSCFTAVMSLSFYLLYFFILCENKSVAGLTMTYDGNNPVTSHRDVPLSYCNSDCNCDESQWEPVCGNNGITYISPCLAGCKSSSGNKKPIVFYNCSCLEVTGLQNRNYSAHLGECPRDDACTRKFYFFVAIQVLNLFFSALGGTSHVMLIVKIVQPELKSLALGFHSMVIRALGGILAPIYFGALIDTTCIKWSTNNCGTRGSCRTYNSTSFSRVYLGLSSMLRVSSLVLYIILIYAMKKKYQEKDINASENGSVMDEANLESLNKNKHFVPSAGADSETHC
The series is described as follows: Uptake into stable transfected OATP1B1 HEK 293 cells. It counts as cell-based. As to conditions: 100 µM, 40 min, relative to RC1 (Gd-EOB-DTPA). The procedure: Human stable transfected OATP1B1 human embryonic kidney 293 cells (OATP1B1 HEK 293, SLCO1B1, Entrez Gene ID: 10599) were used (Leonhardt M et al. Drug Metab Dispos. 2010 Jul;38(7):1024-8). The following culture medium was used: 500 mL DMEM (Dulbecco's Modified Eagle Medium - high Glucose, D6429), 50 mL FCS (fetal bovine serum, Fa. Sigma, F7524), 5.8 mL G418 (Geneticin, Fa. Gibco 10131-027) and 5 mL Pen-Strep. (Penicillin-Streptomycin, Fa. Gibco, Ref 15140-122). Cryopreserved cells were shortly thawed in water bath and diluted in 10 mL warm culture medium (37°C). After medium change the cells were grown for 3d in a 25 cm^2 cell culture flask. After 3 to 5d the cells were transferred into 75 cm^2 flasks. For the splitting the cells were incubated with 1.5 mL trypsin (Trypsin-EDTA (1x) 0,05%, Ref 25300-054 100ml, Fa. Gibco) for 3-5min in the incubator (37°C, 5% CO2 and […]). After centrifugation and washing with medium the cells were counted (50 µL cell suspension and 50 µL trypan blue (Trypan Blue Solution, 93595-50ml, Fa. Fluka). Cells were cultured (1×10^5 cells/well) in poly-D-lysine coated 24-well plates (Fa. Corning, Ref: 354414) in 1.5 mL medium per well. After 48h in the incubator the medium was changed and 1.5 mL/well sodium butyrate containing medium were added (40 mL culture medium plus 400 µL Na-Butyrate, Fa. Sigma Aldrich B5887-5G, 250 mg in 2.27 mL MilliQ water). After 24h in the incubator the medium was vacuumed off and 1.5 mL transport buffer was added and incubated for 10min. The transport buffer contains the following ingredients: 500 mL HBSS (Hank's balanced salt solution, Hyclone, SH30268.01), 5 mL HEPES buffer (4-(2-hydroxyethyl)-1-piperazineethanesulfonic acid, Gibco 15630-056) and 3.9 mL glucose (Sigma, G8270-100, 90 g/200mL MilliQ water). All test items were prepared in transport buffer at a final concentration of 100 µM from stock solutions (180 to 500 mM concentration). The OATP1B1 HEK 293 cells were incubated with test solutions (test item in transport buffer 500 µL) for 40min on a thermoshaker without shaking (PHMP, Fa. Grant Bio). Triplicates were performed for each test item. After incubation the cells were washed with 2 mL of cold PBS (+) buffer (Dulbeccos PBS +, Fa. Gibco). […] As a reference standard Gd-EOB-DTPA (gadoxetate) is used in the same well plate. The OATP1B1 HEK 293 uptake of the test compound is calculated relative to gadoxetate (resulting in the unit % of RC1).

Broadly, the Solubility is how much of the substance goes into solution per volume.

In the case of “Gadolinium-2,2',2"-[(2S)-10-(carboxymethyl)-2-(4-ethoxybenzyl)-1,4,7,10-tetraazacyclododecane-1,4,7-triyl]triacetate [Example 11]”, the Solubility in series [1] is greater than 146 mM. The “Uptake into OATP1B1-HEK 293 cells” value in series [2] is 96 % of RC1.

In turn, “Gadolinium-2,2',2"-[(2S)-2-(4-butoxybenzyl)-10-(carboxymethyl)-1,4,7,10-tetraaza cyclododecane-1,4,7-triyl]triacetate [Example 13]” yielded a Solubility in series [1] greater than 43 mM. Further, the “Uptake into OATP1B1-HEK 293 cells” value in series [2] is 847 % of RC1.

As to “Gadolinium-2,2',2"-[(2S)-10-(carboxymethyl)-2-(4-ethoxybenzyl)-1,4,7,10-tetraazacyclododecane-1,4,7-triyl]triacetate [Example 10]”, in series [1], the Solubility was greater than 23 mM. Further, the “Uptake into OATP1B1-HEK 293 cells” value in series [2] was 212 % of RC1.

“Gadolinium-2,2',2"-[10-(carboxymethyl)-2-(4-ethoxybenzyl)-1,4,7,10-tetraazacyclododecane-1,4,7-triyl]triacetate [Example 9]”: the Solubility in series [1] was greater than 145 mM. Further, the “Uptake into OATP1B1-HEK 293 cells” value in series [2] is 60 % of RC1.

For “Gadolinium-2,2',2"-[10-(carboxymethyl)-2-(4-ethoxybenzyl)-1,4,7,10-tetraazacyclododecane-1,4,7-triyl]triacetate [Example 8]”, the “Uptake into OATP1B1-HEK 293 cells” value in series [2] is reported as 208 % of RC1.

In series [1], “Gadolinium-2,2',2"-[(2S)-2-(4-butoxybenzyl)-10-(carboxymethyl)-1,4,7,10-tetraaza cyclododecane-1,4,7-triyl]triacetate [Example 12]” showed a Solubility of 211 mM. In addition, in series [2], the “Uptake into OATP1B1-HEK 293 cells” value is given as 119 % of RC1.
